This is an account of results in patent US12570655B2, “Cysteine covalent modifiers of AKT1 and uses thereof” (Terremoto Biosciences, Inc., priority 2023, dated 2026).

Holding throughout (assay type): cell-based
The subject of assay [1] is LAPC4 prostate cancer cells. Description: Antiproliferative effects in LAPC4 cells (CellTiter Glo). Conditions: LAPC4 cells (AKT1 E17K allele), read-out: LAPC4 proliferation IC50. The gist of the method:
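LAPC4 cells were cultured in IMDM with 12% FBS and 1% P/S, seeded at 1,000 cells/well and exposed to compound dilutions in DMSO. After 72 h, intracellular ATP was measured by CellTiter Glo luminescence, and IC50 values came from a log(inhibitor) vs. response Hill fit.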
In general terms: Cellular ATP, detected with luciferase, serves as a proxy for viable cell number.

Assay [2] has as its target T1, AKT1 WT (Homo sapiens, UniProt P31749).
T1 construct: expressed in transfected cells; host or cells: HEK293
The assay can be described thus: Live cell AKT1 WT target engagement by NanoBRET competitive probe displacement. As to conditions: HEK293 cells transfected with kinase-NanoLuciferase fusion, 2 h at 37° C. The gist of the method: (§1)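 HEK293 cells transiently expressing kinase–NanoLuciferase fusions (overnight transfection) were treated with serial compound dilutions plus fluorescent ATP-competitive tracer at ~EC50 concentration for 2 h at 37 °C. BRET ratio E600/E460 measured after substrate and extracellular luciferase inhibitor addition; IC50 from log(inhibitor)–response Hill fit.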
Background: BRET reads energy transfer from a luciferase to a nearby fluorophore.

The target in assay [3] is T2, AKT2 (Homo sapiens, UniProt P31751).
T2 construct: expressed in transfected cells; host or cells: HEK293
T2 sequence (P31751 whole entry): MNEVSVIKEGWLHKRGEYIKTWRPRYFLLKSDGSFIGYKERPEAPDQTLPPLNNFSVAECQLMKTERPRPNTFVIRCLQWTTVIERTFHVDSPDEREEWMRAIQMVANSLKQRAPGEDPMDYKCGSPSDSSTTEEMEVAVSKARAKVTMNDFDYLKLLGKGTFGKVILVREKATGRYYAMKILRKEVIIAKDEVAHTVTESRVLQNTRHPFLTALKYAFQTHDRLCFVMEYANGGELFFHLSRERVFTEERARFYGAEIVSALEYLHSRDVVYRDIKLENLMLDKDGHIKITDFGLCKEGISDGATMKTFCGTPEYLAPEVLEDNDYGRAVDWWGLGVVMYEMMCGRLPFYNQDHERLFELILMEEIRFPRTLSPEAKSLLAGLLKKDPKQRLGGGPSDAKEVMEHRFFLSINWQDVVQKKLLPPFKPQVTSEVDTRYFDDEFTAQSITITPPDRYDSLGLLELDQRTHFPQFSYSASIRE
Description: Live cell AKT2 target engagement by NanoBRET competitive probe displacement. As to conditions: HEK293 cells transfected with kinase-NanoLuciferase fusion, 2 h at 37° C. The gist of the method: as §1

The target of assay [4] is T3, AKT1 E17K (Homo sapiens, UniProt P31749, E17K).
T3 construct: expressed in transfected cells; host or cells: HEK293
T3 sequence (P31749 whole entry E17K): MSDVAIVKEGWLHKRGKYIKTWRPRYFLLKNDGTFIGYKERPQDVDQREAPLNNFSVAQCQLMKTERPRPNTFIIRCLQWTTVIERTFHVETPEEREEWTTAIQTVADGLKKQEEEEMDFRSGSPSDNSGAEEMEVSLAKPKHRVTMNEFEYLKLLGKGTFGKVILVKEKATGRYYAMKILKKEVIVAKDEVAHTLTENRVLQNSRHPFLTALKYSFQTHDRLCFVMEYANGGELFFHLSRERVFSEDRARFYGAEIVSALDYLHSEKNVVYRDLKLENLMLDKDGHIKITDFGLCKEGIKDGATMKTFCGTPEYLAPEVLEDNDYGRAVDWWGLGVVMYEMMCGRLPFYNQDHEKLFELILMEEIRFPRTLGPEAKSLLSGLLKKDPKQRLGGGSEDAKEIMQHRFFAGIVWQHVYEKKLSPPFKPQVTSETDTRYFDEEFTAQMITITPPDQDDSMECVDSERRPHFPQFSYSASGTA
Description: Live cell AKT1 E17K target engagement by NanoBRET competitive probe displacement. Conditions: HEK293 cells transfected with kinase-NanoLuciferase fusion, 2 h at 37° C. The gist of the method: as §1

Like-named read-outs stand apart in the source and are kept apart here. A value given as a limit tells only on which side of the number the result lay.

T1 sequence (P31749 whole entry): as the sequence (P31749 whole entry E17K) above, with K17E counted along it

Take `C=CC(=O)N1CCC(N[C@H]2CCc3cc(-n4c(-c5ccc(F)cc5)nc5ccc(-n6cccn6)nc54)ccc32)CC1` [Example 247, 1-(4-{[(1S)-5-[2-(4-fluorophenyl)-5-(pyrazol-1-yl)imidazo[4,5-b]pyridin-3-yl]-2,3-dihydro-1H-inden-1-yl]amino}piperidin-1-yl)prop-2-en-1-one]: the IC50 came to 1.68 µM in assay [1] (Homo sapiens, LAPC4, 72 h); 3.12 µM in assay [2]; 0.469 µM in assay [3]; 0.113 µM in assay [4].
Regarding `C=CC(=O)N1CCC(N[C@H]2CCc3cc(-n4c(-c5cccnc5N)nc5ccc(N6CCOCC6)nc54)ccc32)CC1` [Example 86, (S)-1-(4-((5-(2-(2-aminopyridin-3-yl)-5-morpholino-3H-imidazo[4,5-b]pyridin-3-yl)-2,3-dihydro-1H-inden-1-yl)amino)piperidin-1-yl)prop-2-en-1-one], the IC50 is 0.18 µM in assay [1] (Homo sapiens, LAPC4, 72 h); 0.0137 µM in assay [2]; 0.584 µM in assay [3]; 0.153 µM in assay [4].
Regarding `C=C(Cl)C(=O)Nc1ccccc1C(=O)N[C@H]1CCc2cc(-n3c(-c4cccnc4N)nc4ccc(-n5cccn5)nc43)ccc21` [Example 38, (S)-N-(5-(2-(2-aminopyridin-3-yl)-5-(1H-pyrazol-1-yl)-3H-imidazo[4,5-b]pyridin-3-yl)-2,3-dihydro-1H-inden-1-yl)-2-(2-chloroacrylamido)benzamide], the IC50 in assay [1] (Homo sapiens, LAPC4, 72 h) is above 10 µM; in assay [2], 0.204 µM; in assay [3] it was 2.09 µM; in assay [4] it was 0.881 µM.
For `C=CC(=O)N1CCC(N[C@H]2CCc3cc(-n4c(-c5cccnc5N)nc5ccc(-n6ccc(C7(C#N)CC7)n6)nc54)ccc32)CC1` [Example 322, (S)-1-(1-(3-(1-((1-acryloylpiperidin-4-yl)amino)-2,3-dihydro-1H-inden-5-yl)-2-(2-aminopyridin-3-yl)-3H-imidazo[4,5-b]pyridin-5-yl)-1H-pyrazol-3-yl)cyclopropane-1-carbonitrile], the IC50 in assay [1] (Homo sapiens, LAPC4, 72 h) was 0.137 µM; in assay [2], 0.247 µM; in assay [3], 0.0414 µM; in assay [4], 0.00551 µM.
With `C=CC(=O)N1C[C@H]2C[C@@H](C1)C2N[C@H]1CCc2cc(-n3c(-c4cccnc4N)nc4ccc(-n5cccn5)nc43)ccc21` (single isomer, unassigned) [Example 60, 1-((1R,5S,6*)-6-(((S)-5-(2-(2-aminopyridin-3-yl)-5-(1H-pyrazol-1-yl)-3H-imidazo[4,5-b]pyridin-3-yl)-2,3-dihydro-1H-inden-1-yl)amino)-3-azabicyclo[3.1.1]heptan-3-yl)prop-2-en-1-one], the IC50 in assay [1] (72 h) is 1.38 µM; in assay [2], above 1 µM; in assay [3], 1.68 µM; in assay [4], 0.406 µM.
On the same counts, the results for `C=CC(=O)N1CCC(N[C@H]2CC(F)c3cc(-n4c(-c5cccnc5N)nc5ccc(-n6cccn6)nc54)ccc32)CC1` (single isomer, unassigned) [Example 233, 1-(4-(((1S,3*)-5-(2-(2-aminopyridin-3-yl)-5-(1H-pyrazol-1-yl)-3H-imidazo[4,5-b]pyridin-3-yl)-3-fluoro-2,3-dihydro-1H-inden-1-yl)amino)piperidin-1-yl)prop-2-en-1-one] are 0.07 µM, 0.0597 µM, 0.028 µM and 0.0146 µM.
For the molecule `C=CC(=O)N1CCC(N[C@@H]2c3ccc(-n4c(-c5cccnc5N)nc5ccc(-n6cccn6)nc54)cc3CC2F)C[C@H]1C` (single isomer, unassigned) [Example 145, 1-((2R,4*)-4-(((1R,2*)-5-(2-(2-aminopyridin-3-yl)-5-(1H-pyrazol-1-yl)-3H-imidazo[4,5-b]pyridin-3-yl)-2-fluoro-2,3-dihydro-1H-inden-1-yl)amino)-2-methylpiperidin-1-yl)prop-2-en-1-one], the IC50 in assay [1] (72 h) stood at 0.436 µM; in assay [2], 0.0297 µM; in assay [3], 1.03 µM; in assay [4], 0.187 µM.
With `C=CC(=O)N1CCC(N[C@@H]2c3ccc(-n4c(-c5cccnc5N)nc5ccc(-n6cccn6)nc54)cc3CC2OC)CC1` (single isomer, unassigned) [Example 163, 1-(4-(((1R,2*)-5-(2-(2-aminopyridin-3-yl)-5-(1H-pyrazol-1-yl)-3H-imidazo[4,5-b]pyridin-3-yl)-2-methoxy-2,3-dihydro-1H-inden-1-yl)amino)piperidin-1-yl)prop-2-en-1-one], the IC50 is 0.879 µM in assay [1] (72 h), 0.0717 µM in assay [2], 1.91 µM in assay [3] and 0.642 µM in assay [4].
Consider `C=CC(=O)N1CCC(N[C@H]2CCc3cc(-n4c(-c5cccnc5N)nc5ccc(-c6ncc(C)o6)nc54)ccc32)CC1` [Example 255, 1-(4-{[(1S)-5-[2-(2-aminopyridin-3-yl)-5-(5-methyl-1,3-oxazol-2-yl)imidazo[4,5-b]pyridin-3-yl]-2,3-dihydro-1H-inden-1-yl]amino}piperidin-1-yl)prop-2-en-1-one], for which the IC50 came out at 0.214 µM in assay [1] (Homo sapiens, LAPC4, 72 h); 0.547 µM in assay [2]; 0.177 µM in assay [3]; 0.0332 µM in assay [4].
As for `C=CC(=O)N1CCC(N[C@H]2CC(O)c3cc(-n4c(-c5cccnc5N)nc5ccc(-n6cccn6)nc54)ccc32)CC1` (single isomer, unassigned) [Example 218, 1-(4-(((1S,3*)-5-(2-(2-aminopyridin-3-yl)-5-(1H-pyrazol-1-yl)-3H-imidazo[4,5-b]pyridin-3-yl)-3-hydroxy-2,3-dihydro-1H-inden-1-yl)amino)piperidin-1-yl)prop-2-en-1-one], the IC50 in assay [1] (72 h) stood at 0.226 µM; in assay [2], 0.365 µM; in assay [3], 0.14 µM; in assay [4], 0.0523 µM.
For the molecule `C=CC(=O)N1CCC(CN[C@H]2CCc3cc(-n4c(-c5cccnc5N)nc5ccc(-n6cccn6)nc54)ccc32)CC1` [Example 68, 1-[4-({[(1S)-5-[2-(2-aminopyridin-3-yl)-5-(pyrazol-1-yl)imidazo[4,5-b]pyridin-3-yl]-2,3-dihydro-1H-inden-1-yl]amino}methyl)piperidin-1-yl]prop-2-en-1-one], the IC50 in assay [1] (Homo sapiens, LAPC4, 72 h) came to 0.0756 µM; in assay [2] it was 0.00984 µM; in assay [3] it was 0.0742 µM; in assay [4], 0.0219 µM.
On to `C=CC(=O)NC1CC(N[C@H]2CCc3cc(-n4c(-c5cccnc5N)nc5ccc(-n6cccn6)nc54)ccc32)C1` (single isomer, unassigned) [Example 90, N-((1*,3*)-3-(((S)-5-(2-(2-aminopyridin-3-yl)-5-(1H-pyrazol-1-yl)-3H-imidazo[4,5-b]pyridin-3-yl)-2,3-dihydro-1H-inden-1-yl)amino)cyclobutyl)acrylamide], for which the IC50 was 0.351 µM in assay [1] (72 h), 0.0412 µM in assay [2], 0.109 µM in assay [3] and 0.156 µM in assay [4].
As to `C=CS(=O)(=O)Nc1ccccc1C(=O)N[C@H]1CCc2cc(-n3c(-c4cccnc4N)nc4ccc(-n5cccn5)nc43)ccc21` [Example 24, (S)-N-(5-(2-(2-aminopyridin-3-yl)-5-(1H-pyrazol-1-yl)-3H-imidazo[4,5-b]pyridin-3-yl)-2,3-dihydro-1H-inden-1-yl)-2-(vinylsulfonamido)benzamide], the IC50 in assay [1] (Homo sapiens, LAPC4, 72 h) amounted to 0.238 µM; in assay [2], 0.012 µM; in assay [3] it was 0.0379 µM; in assay [4] it was 0.0141 µM.
